Source: ChEMBL document CHEMBL1135474, “Synthesis and antitumor activity of 1,5,6-substituted E-3-(2-chloro-3-indolylmethylene)-1,3-dihydroindol-2-ones” (J Med Chem, 2002)
pIC50: −log10 of the molar value.

Columns and labels:
[1] = molecular target: Cyclin-dependent kinase 1/cyclin B (Homo sapiens, UniProt P06493); experiment: Inhibition of Cyclin-dependent kinase 1-cyclin B; type: protein-complex assay
[2] = system: MCF7; experiment: Cytotoxic effect on human MCF-7 breast cancer cell line as percentage growth at 10e-4 M; type: functional
[3] = system: NCI-H460; experiment: Cytotoxic effect on human NCI-H460 lung cancer cell line as percentage growth after inoculation at 10e-4 M; type: functional
[4] = system: SF-268; experiment: Cytotoxic effect on human SF-268 glioma cancer cell line as percentage growth after inoculation at 10e-4 M; type: functional
[5] = system: Panel CNS (Carcinoma cell lines); experiment: Inhibition of proliferation in NCI human CNS tumor cell lines; type: functional
[6] = system: Panel CNS (Carcinoma cell lines); experiment: Cytotoxic effect on human CNS tumor cell lines; type: functional
[7] = system: Panel CNS (Carcinoma cell lines); experiment: Cytostatic effect on human CNS tumor cell lines; type: functional
[8] = system: Panel colon (Carcinoma cell lines); experiment: Cytostatic effect on human colon tumor cell lines; type: functional
[9] = system: Panel leukemia (Carcinoma cell lines); experiment: Inhibition of proliferation in NCI human leukemia tumor cell lines; type: functional
[10] = system: NSCLC; experiment: Cytostatic effect on human non-small cell lung carcinoma tumor cell lines; type: functional
[11] = system: NSCLC; experiment: Inhibition of proliferation in NCI human non-small cell lung tumor cell lines; type: functional
[12] = system: Panel prostate (Carcinoma cell lines); experiment: Cytotoxic effect on human prostate tumor cell lines; type: functional
[13] = system: Panel breast (Carcinoma cell lines); experiment: Inhibition of proliferation in NCI human breast tumor cell lines; type: functional
[14] = system: Panel breast (Carcinoma cell lines); experiment: Cytostatic effect on human breast tumor cell lines; type: functional
[15] = system: Panel leukemia (Carcinoma cell lines); experiment: Cytotoxic effect on human leukemia tumor cell lines; type: functional
[16] = system: Panel leukemia (Carcinoma cell lines); experiment: Cytostatic effect on human leukemia tumor cell lines; type: functional
[17] = system: Panel colon (Carcinoma cell lines); experiment: Inhibition of proliferation in NCI human colon tumor cell lines; type: functional
[18] = system: Panel colon (Carcinoma cell lines); experiment: Cytotoxic effect on human colon tumor cell lines; type: functional
[19] = system: Panel ovarian (Carcinoma cell lines); experiment: Inhibition of proliferation in NCI human ovarian tumor cell lines; type: functional
[20] = system: Panel ovarian (Carcinoma cell lines); experiment: Cytotoxic effect on human ovarian tumor cell lines; type: functional
[21] = system: Panel ovarian (Carcinoma cell lines); experiment: Cytostatic effect on human ovarian tumor cell lines; type: functional
[22] = system: Panel melanoma (Carcinoma cell lines); experiment: Inhibition of proliferation in NCI human melanoma tumor cell lines; type: functional
[23] = system: Panel melanoma (Carcinoma cell lines); experiment: Cytotoxic effect on human melanoma tumor cell lines; type: functional
[24] = system: Panel melanoma (Carcinoma cell lines); experiment: Cytostatic effect on human melanoma tumor cell lines; type: functional
[25] = system: Panel prostate (Carcinoma cell lines); experiment: Inhibition of proliferation in NCI human prostate tumor cell lines; type: functional
[26] = system: Panel prostate (Carcinoma cell lines); experiment: Cytostatic effect on human prostate tumor cell lines; type: functional
[27] = Cytostatic effect on 60 human tumor cell line panel, MG-MID represents mean value; type: functional
[28] = Inhibition of proliferation in NCI 60 human tumor cell line panel, MG-MID represents mean value; type: functional
[29] = Cytotoxic effect on 60 human tumor cell line panel, MG-MID represents mean value; type: functional
[30] = system: Panel renal (Carcinoma cell lines); experiment: Inhibition of proliferation in NCI human renal tumor cell lines; type: functional
[31] = system: Panel renal (Carcinoma cell lines); experiment: Cytotoxic effect on human renal tumor cell lines; type: functional
[32] = system: Panel renal (Carcinoma cell lines); experiment: Cytostatic effect on human renal tumor cell lines; type: functional
[33] = system: Panel breast (Carcinoma cell lines); experiment: Cytotoxic effect on human breast tumor cell lines; type: functional

Structure (SMILES): COc1cc2c(cc1C)NC(=O)/C2=C/c1c(Cl)[nH]c2ccccc12
- pIC50 [1]: 4.70
- Growth [2]: -35%
- Growth [3]: -35%
- Growth [4]: -48%

Structure (SMILES): COc1cc2c(/C=C3/C(=O)N(C)c4ccccc43)c(Cl)[nH]c2cc1C
- GI50 [5]: 200 nM
- LC50 [6]: -4.5
- logTGI [7]: -5.6 log M
- logTGI [8]: -5 log M
- GI50 [9]: 251 nM
- Growth [2]: 4%
- Growth [3]: -18%
- logTGI [10]: -5 log M
- GI50 [11]: 794 nM
- LC50 [12]: -4
- Growth [4]: -1%
- GI50 [13]: 158 nM
- logTGI [14]: -5.1 log M
- LC50 [15]: -4
- logTGI [16]: -4.6 log M
- GI50 [17]: 316 nM
- LC50 [18]: -4.2
- GI50 [19]: 316 nM
- LC50 [20]: -4.3
- logTGI [21]: -5.2 log M
- GI50 [22]: 631 nM
- LC50 [23]: -4
- logTGI [24]: -4.6 log M
- GI50 [25]: 398 nM
- logTGI [26]: -4.7 log M
- logTGI [27]: -4.9 log M
- GI50 [28]: 398 nM
- LC50 [29]: -4.1
- GI50 [30]: 2000 nM
- LC50 [31]: -4
- logTGI [32]: -4.2 log M

Structure (SMILES): O=C1Nc2ccccc2/C1=C\c1c(Cl)n(-c2ccccc2)c2ccccc12
- Growth [2]: 8%
- Growth [3]: -16%
- Growth [4]: -17%

Structure (SMILES): COc1cc2c(cc1C)NC(=O)/C2=C/c1c(Cl)n(C)c2ccccc12
- Growth [2]: 3%
- Growth [3]: -50%
- Growth [4]: -14%

Structure (SMILES): COc1cc2c(/C=C3/C(=O)N(c4ccccc4)c4ccccc43)c(Cl)[nH]c2cc1C
- GI50 [5]: 3160 nM
- LC50 [6]: -4.2
- logTGI [7]: -4.7 log M
- logTGI [8]: -4.7 log M
- GI50 [9]: 2510 nM
- Growth [2]: 1%
- Growth [3]: -10%
- logTGI [10]: -4.5 log M
- GI50 [11]: 3160 nM
- LC50 [12]: -4
- Growth [4]: 1%
- GI50 [13]: 2510 nM
- logTGI [14]: -5 log M
- LC50 [15]: -4
- logTGI [16]: -4.4 log M
- GI50 [17]: 2510 nM
- LC50 [18]: -4.2
- GI50 [19]: 2510 nM
- LC50 [20]: -4.3
- logTGI [21]: -4.8 log M
- GI50 [22]: 3160 nM
- LC50 [23]: -4.3
- logTGI [24]: -4.9 log M
- GI50 [25]: 3160 nM
- logTGI [26]: -4.9 log M
- logTGI [27]: -4.7 log M
- GI50 [28]: 3160 nM
- LC50 [29]: -4.1
- GI50 [30]: 3980 nM
- LC50 [31]: -4.1
- logTGI [32]: -4.4 log M

Structure (SMILES): COc1ccc2[nH]c(Cl)c(/C=C3/C(=O)N(c4ccccc4)c4ccccc43)c2c1
- Growth [2]: 3%
- Growth [3]: 2%
- Growth [4]: 15%

Structure (SMILES): COc1cc2c(/C=C3/C(=O)Nc4ccccc43)c(Cl)[nH]c2cc1C
- GI50 [5]: 79.4 nM
- LC50 [6]: -4.4
- logTGI [7]: -5.6 log M
- logTGI [8]: -5.1 log M
- GI50 [9]: 63.1 nM
- Growth [2]: -54%
- Growth [3]: -39%
- logTGI [10]: -4.7 log M
- GI50 [11]: 126 nM
- LC50 [12]: -4.4
- Growth [4]: -30%
- GI50 [13]: 100 nM
- logTGI [14]: -5.3 log M
- LC50 [15]: -4.1
- logTGI [16]: -4.7 log M
- GI50 [17]: 79.4 nM
- LC50 [18]: -4.6
- GI50 [19]: 79.4 nM
- LC50 [20]: -4.4
- logTGI [21]: -5.2 log M
- GI50 [22]: 126 nM
- LC50 [23]: -4.6
- logTGI [24]: -5 log M
- GI50 [25]: 126 nM
- logTGI [26]: -4.8 log M
- logTGI [27]: -5 log M
- GI50 [28]: 100 nM
- LC50 [29]: -4.3
- GI50 [30]: 200 nM
- LC50 [31]: -4.3
- logTGI [32]: -4.7 log M

Structure (SMILES): COc1cc2c(cc1C)NC(=O)/C2=C/c1c(Cl)n(-c2ccccc2)c2ccccc12
- Growth [2]: 8%
- Growth [3]: 5%
- Growth [4]: 51%

Structure (SMILES): COc1ccc2[nH]c(Cl)c(/C=C3/C(=O)Nc4cc(C)c(OC)cc43)c2c1
- pIC50 [1]: 4.52
- Growth [2]: -23%
- Growth [3]: -23%
- Growth [4]: -54%

Structure (SMILES): O=C1Nc2ccccc2/C1=C\c1c(Cl)[nH]c2ccc(O)cc12
- pIC50 [1]: 4.52
- Growth [2]: -69%
- Growth [3]: -82%
- Growth [4]: -34%

Structure (SMILES): CC[C@]1(O)C[C@H]2CN(CCc3c([nH]c4ccccc34)[C@@](C(=O)OC)(c3cc4c(cc3OC)N(C=O)[C@H]3[C@@](O)(C(=O)OC)[C@H](OC(C)=O)[C@]5(CC)C=CCN6CC[C@]43[C@@H]65)C2)C1.O=S(=O)(O)O [VINCRISTINE SULFATE]
- GI50 [5]: 126 nM
- LC50 [6]: -3.7
- logTGI [7]: -5.2
- logTGI [8]: -5.4
- GI50 [9]: 100 nM
- logTGI [10]: -4.8 log M
- GI50 [11]: 251 nM
- LC50 [12]: -3.5
- GI50 [13]: 316 nM
- LC50 [33]: -3.5
- logTGI [14]: -5.1
- LC50 [15]: -3.2
- logTGI [16]: -4.8
- GI50 [17]: 100 nM
- LC50 [18]: -4.1
- GI50 [19]: 316 nM
- LC50 [20]: -3.5
- logTGI [21]: -4.7
- GI50 [22]: 158 nM
- LC50 [23]: -3.6
- logTGI [24]: -5.1 log M
- GI50 [25]: 126 nM
- logTGI [26]: -5.2
- logTGI [27]: -5
- GI50 [28]: 200 nM
- LC50 [29]: -3.6
- GI50 [30]: 316 nM
- LC50 [31]: -3.6
- logTGI [32]: -4.7

Structure (SMILES): O=C1/C(=C/c2c(Cl)[nH]c3ccccc23)c2ccccc2N1c1ccccc1
- Growth [2]: -3%
- Growth [3]: -1%
- Growth [4]: 6%

Structure (SMILES): COc1ccc2c(c1)/C(=C\c1c(Cl)n(-c3ccccc3)c3ccccc13)C(=O)N2
- Growth [2]: -6%
- Growth [3]: -28%
- Growth [4]: 12%

Structure (SMILES): COc1ccc2c(c1)/C(=C\c1c(Cl)[nH]c3cc(C)c(OC)cc13)C(=O)N2
- GI50 [5]: 794 nM
- LC50 [6]: -4.7
- logTGI [7]: -5.2 log M
- logTGI [8]: -5 log M
- GI50 [9]: 501 nM
- Growth [2]: -54%
- Growth [3]: -48%
- logTGI [10]: -4.8 log M
- GI50 [11]: 2510 nM
- LC50 [12]: -4.4
- Growth [4]: -44%
- GI50 [13]: 1000 nM
- logTGI [14]: -5 log M
- LC50 [15]: -4.2
- logTGI [16]: -5.1 log M
- GI50 [17]: 1000 nM
- LC50 [18]: -4.4
- GI50 [19]: 794 nM
- LC50 [20]: -4.3
- logTGI [21]: -5.3 log M
- GI50 [22]: 1000 nM
- LC50 [23]: -4.5
- logTGI [24]: -5 log M
- GI50 [25]: 1260 nM
- logTGI [26]: -5.1 log M
- logTGI [27]: -5 log M
- GI50 [28]: 1000 nM
- LC50 [29]: -4.3
- GI50 [30]: 2000 nM
- LC50 [31]: -4.3
- logTGI [32]: -4.8 log M
